Experimental data from patent publication US20110039879A1, “METHODS FOR INCREASING WHITE BLOOD CELLS” (FibroGen ,Inc., priority 2007, published 2011).

Tests used:
[1] = tested on: total white blood cell (WBC); test: Chemotherapy (cisplatin)-induced leukopenia, total WBC by CBC; type: in vivo, Sprague Dawley rats; settings: rats
Method: (§1) To examine the effect of compounds and methods of the present invention on increasing white blood cells, the following studies were performed. In one series of experiments, male Swiss-Webster mice were administered various compounds of the present invention via oral gavage using a ball-tipped gavage needle. Animals treated by oral gavage received a 10 ml/kg volume of either 0.5% carboxymethyl cellulose (CMC) with 0.1% Polysorbate 80 (vehicle control) or various doses (10-100 mg/kg) of a compound of the present invention in 0.5% CMC with 0.1% Polysorbate 80. Animals were dosed once daily for 3 or 4 days. […] The following study was performed to examine the effect of compounds and methods of the present invention on treatment of chemotherapy-induced leukopenia. Thirty-eight Sprague Dawley male rats (280-300 g) were obtained from Charles River Laboratories. Six rats served as healthy controls. On day 0, the remaining thirty-two rats were treated by intravenous injection (i.v.) with a single dose of cisplatin (CP) (Bedford Laboratories, Bedford Ohio) at 5 mg/kg and by oral gavage with one of the following: Compound S at 60 mg/kg; Compound B at 40 mg/kg; or vehicle 2 ml/kg. Compound was administered on day 0, day 2, and day 4 with the first dose given two hours before the CP injection. Blood samples (0.2 ml) were collected on day 4 as follows. Animals were anesthetized with isoflurane and 0.2 ml of blood was collected from the tail vein into a MICROTAINER EDTA-2K tube (Becton-Dickinson). Blood samples were processed to measure total white blood cell, neutrophil, and lymphocyte levels by CBC analysis as described above in Example 3.

neutrophils [2] = test: Chemotherapy (cisplatin)-induced leukopenia, neutrophils by CBC; type: in vivo, Sprague Dawley rats; settings: rats, cisplatin 5 mg/kg i.v. single dose day 0 plus vehicle by oral gavage, blood day 4
Method: as §1

lymphocytes [3] = test: Chemotherapy (cisplatin)-induced leukopenia, lymphocytes by CBC; type: in vivo, Sprague Dawley rats; settings: rats, cisplatin 5 mg/kg i.v. single dose day 0 plus vehicle by oral gavage, blood day 4
Method: as §1

[4] = tested on: neutrophils in bone marrow; test: Neutrophils in bone marrow by FACS analysis; type: in vivo, Swiss-Webster mice; settings: mice, oral gavage, tibia bone marrow 6 h after final dosing
Method: (§2) Six hours after the final dosing, 200 μl blood samples were collected for detection of hematopoietic progenitor cells (HPCs) and neutrophils by FACS analysis using methods previously described. (See, e.g., Wang et al. (1997) J Leukoc Biol 62 503-9 and Legasse et al. (1996) J Immunol Methods 197:139-50.) Briefly, leukocytes and progenitor cells were isolated from whole blood samples following erythrocyte depletion using red blood cell lysis buffer (eBioscience) according to the manufacturer's instructions. The remaining cells were incubated for one hour with monoclonal antibodies directed against mouse Sca-1 and mouse c-Kit (cell surface markers for HPCs, BD Pharmingen), or mouse Mac-1 and mouse Gr-1 (cell surface markers for murine neutrophils, BD Pharmingen). Following incubation with the monoclonal antibodies, the cells were washed three times with sort buffer (PBS, 1% fetal bovine serum) and resuspended in sort buffer containing 50 μg/ml of propidium iodide. Samples were then analyzed for the presence and quantitation of HPCs and neutrophils by flow cytometry (FACS Calibur, Becton Dickinson). The cytometer was set to acquire 10 000 events. Two or three blood samples obtained from each animal were analyzed and the average recorded. Hematopoietic progenitor cells were determined as double positive Sca-1+/c-Kit+ cells and neutrophils were determined as double positive Mac-1+/Gr-1+ cells.
(§3) To examine the effect of compounds and methods of the present invention on hematopoietic progenitor cell (HPC) and neutrophil levels in bone marrow, the following studies were performed. Male Swiss-Webster mice were administered various compounds of the present invention via oral gavage using a ball-tipped gavage needle. Animals treated by oral gavage received a 10 ml/kg volume of either 0.5% carboxymethyl cellulose (CMC) with 0.1% Polysorbate 80 (vehicle control) or various doses (10-100 mg/kg) of a compound of the present invention in 0.5% CMC with 0.1% Polysorbate 80. Animals were dosed once daily for 3 or 4 days. Six hours after the final dosing, bone marrow samples were taken from one tibia of each animal and suspended in buffer (PBS with 1% fetal bovine serum). Bone marrow suspensions were then filtered through nylon filters to remove stromal cells. Following filtration, the remaining cells were counted manually using a hemocytometer. Detection and quantitation of HPCs and neutrophils were performed by FACS analysis as described above in Example 1.

[5] = tested on: hematopoietic progenitor cells (HPCs) in bone marrow; test: Hematopoietic progenitor cells in bone marrow by FACS analysis; type: in vivo, Swiss-Webster mice; settings: mice, oral gavage, tibia bone marrow 6 h after final dosing
Method: as §2, §3

neutrophils [6] = test: Neutrophils (Mac-1+/Gr-1+) in blood by FACS analysis; type: in vivo, Swiss-Webster mice; settings: mice, oral gavage, blood 6 h after final dosing
Method: (§4) To examine the effect of compounds and methods of the present invention on hematopoietic progenitor cell (HPC) and neutrophil levels, the following studies were performed. Male Swiss-Webster mice were administered various compounds of the present invention via oral gavage using a ball-tipped gavage needle. Animals treated by oral gavage received a 10 ml/kg volume of either 0.5% carboxymethyl cellulose (CMC) with 0.1% Polysorbate 80 (vehicle control) or various doses (10-100 mg/kg) of a compound of the present invention in 0.5% CMC with 0.1% Polysorbate 80. Animals were dosed once daily for 3 or 4 days.
as §2

neutrophils [7] = test: Neutrophils by complete blood count, once daily dosing 3 or 4 days; type: in vivo, Swiss-Webster mice; settings: mice, oral gavage, blood 6 h after final dosing, CBC
Method: as §4, with “increasing white blood cells,” for “hematopoietic progenitor cell (HPC) and neutrophil levels,”, “In one series of experiments, male” for “Male”, “days. Six hours after the final dosing, 200 μl blood samples were collected and total white blood cell, neutrophil, and lymphocyte levels were measured by complete blood count (CBC) using a CellDyn cell analyzer (Abbott Laboratories).” for “days.”

[8] = tested on: hematopoietic progenitor cells (HPCs); test: Hematopoietic progenitor cells (Sca-1+/c-Kit+) in blood by FACS analysis; type: in vivo, Swiss-Webster mice; settings: mice, oral gavage, blood 6 h after final dosing
Method: as §4, §2

[9] = tested on: total white blood cell (WBC); test: Total white blood cells by complete blood count, once daily dosing 3 or 4 days; type: in vivo, Swiss-Webster mice; settings: mice, oral gavage, blood 6 h after final dosing
Method: as §4, with “increasing white blood cells,” for “hematopoietic progenitor cell (HPC) and neutrophil levels,”, “In one series of experiments, male” for “Male”, “days. Six hours after the final dosing, 200 μl blood samples were collected and total white blood cell, neutrophil, and lymphocyte levels were measured by complete blood count (CBC) using a CellDyn cell analyzer (Abbott Laboratories).” for “days.”

lymphocytes [10] = test: Lymphocytes by complete blood count, once daily dosing 3 or 4 days; type: in vivo, Swiss-Webster mice; settings: mice, oral gavage, blood 6 h after final dosing, CBC
Method: as §4, with “increasing white blood cells,” for “hematopoietic progenitor cell (HPC) and neutrophil levels,”, “In one series of experiments, male” for “Male”, “days. Six hours after the final dosing, 200 μl blood samples were collected and total white blood cell, neutrophil, and lymphocyte levels were measured by complete blood count (CBC) using a CellDyn cell analyzer (Abbott Laboratories).” for “days.”

[11] = 100 mg/kg once daily for 4 days

## N.N.[Cl][Pt][Cl] [cisplatin, reference compound]
[1]; 5 mg/kg cisplatin, day 4
  reduction of total white blood cell levels compared to non-treated control animals: 21%
[1]; cisplatin 5 mg/kg i.v. single dose day 0 plus vehicle by oral gavage, blood day 4
  Total WBC: 13.3 10^3 cells/μl
[1]; cisplatin 5 mg/kg i.v. single dose day 0 plus vehicle by oral gavage, blood day 4, vs healthy control
  Total WBC % Change from Control: −21%
Neutrophils [2]
  Neutrophils: 1.6 10^3 cells/μl
Neutrophils [2]; vs healthy control
  Neutrophils % Change from Control: −22%
Lymphocytes [3]
  Lymphocytes: 10.1 10^3 cells/μl
Lymphocytes [3]; vs healthy control
  Lymphocytes % Change from Control: −24%

## COc1ccc(Oc2ccc3c(O)c(C(=O)NCC(=O)O)ncc3c2)cc1 [Compound A, {[4-Hydroxy-7-(4-methoxy-phenoxy)-isoquinoline-3-carbonyl]-amino}-acetic acid]
[4]; 60 mg/kg once daily for 3 days
  Percent Bone Marrow Neutrophils: 33.4 % gated cells
  Percent Bone Marrow Neutrophils Fold Increase Over Control: 1.1 fold
[4]; [11]
  Percent Bone Marrow Neutrophils: 33.7 % gated cells
  Percent Bone Marrow Neutrophils Fold Increase Over Control: 1.3 fold
[5]; 60 mg/kg once daily for 3 days
  Percent Bone Marrow HPCs: 5.1 % gated cells
  Percent Bone Marrow HPCs Fold Increase Over Control: 1.3 fold
[5]; [11]
  Percent Bone Marrow HPCs: 6.7 % gated cells
  Percent Bone Marrow HPCs Fold Increase Over Control: 1.5 fold
Neutrophils [6]; 60 mg/kg once daily for 3 days
  Blood Neutrophils: 200 cells/μl
  Blood Neutrophils Fold Increase Over Control: 2.0 fold
  Percent Blood Neutrophils: 2.3 % gated cells
  Percent Blood Neutrophils Fold Increase Over Control: 1.6 fold
Neutrophils [6]; [11]
  Blood Neutrophils: 1,083 cells/μl
  Blood Neutrophils Fold Increase Over Control: 6.1 fold
  Percent Blood Neutrophils: 11.3 % gated cells
  Percent Blood Neutrophils Fold Increase Over Control: 3.4 fold
Neutrophils [7]; 60 mg/kg once daily for 3 days
  Neutrophils: 0.78 10^3 cells/μl
  Neutrophils % Increase Over Control: 18%
Neutrophils [7]; [11]
  Neutrophils: 1.22 10^3 cells/μl
  Neutrophils % Increase Over Control: 94%
[8]; 60 mg/kg once daily for 3 days
  Blood HPCs: 76 cells/μl
  Blood HPCs Fold Increase Over Control: 1.7 fold
  Percent Blood HPCs: 0.9 % gated cells
  Percent Blood HPCs Fold Increase Over Control: 1.4 fold
[8]; [11]
  Blood HPCs: 125 cells/μl
  Blood HPCs Fold Increase Over Control: 7.4 fold
  Percent Blood HPCs: 1.3 % gated cells
  Percent Blood HPCs Fold Increase Over Control: 4.1 fold
[9]; 60 mg/kg once daily for 3 days
  Total WBC: 8.66 10^3 cells/μl
  Total WBC % Increase Over Control: 12%
[9]; [11]
  Total WBC: 9.62 10^3 cells/μl
  Total WBC % Increase Over Control: 14%
Lymphocytes [10]; 60 mg/kg once daily for 3 days
  Lymphocytes: 7.82 10^3 cells/μl
  Lymphocytes % Increase Over Control: 14%
Lymphocytes [10]; [11]
  Lymphocytes: 8.30 10^3 cells/μl
  Lymphocytes % Increase Over Control: 8%
